Assay [1] concerns drug-induced ABCB1-overexpressing cancer cell line KB-C2. As to the kind of experiment: MDR reversal study (MTT), drug-induced ABCB1-overexpressing cells. The settings on record: chemotherapeutic drug alone.
Assay [2] concerns drug-induced ABCC1-overexpressing cancer cell line KB-CV60. As to the kind of experiment: MDR reversal study (MTT), drug-induced ABCC1-overexpressing cells. In kind it is cell-based. The settings on record: chemotherapeutic drug alone, Table 4.
In assay [3] the test system is KB-3-1 parental cell line. As to the kind of experiment: MDR reversal study (MTT), parental KB-3-1. The class given is cell-based. The settings on record: chemotherapeutic drug alone.
The subject of assay [4] is transfected ABCC1-overexpressing cell line HEK293/ABCC1. Nature of the assay: MDR reversal study (MTT), transfected ABCC1-overexpressing cells. The class given is cell-based. As to conditions: chemotherapeutic drug alone.
For assay [5], the system named is HEK293/pcDNA3.1 parental cell line. As to the kind of experiment: MDR reversal study (MTT), parental HEK293/pcDNA3.1. The class given is cell-based. As to conditions: for IC50 / RF: chemotherapeutic drug alone.
Another assay has as its system parental cells (KB-3-1). As to the kind of experiment: cells. The settings on record: Homo sapiens.

For `N.N.[Cl][Pt][Cl]` [Cisplatin], the RF entry was “± 0.428 (1.13)” in assay [1]; 1.25 in assay [2]; 1.00 in assay [3] (Table 2); 1.00 in assay [3] (Table 4); 1.01 in assay [4]; 1.00 in assay [5] (Table 3). Besides, in assay [5] (Table 5), the RF turned out to be 1.00. Moreover, the IC50 in assay [2] was 2.23 µM; in assay [3] (Table 2), 1.79 ± 0.476 µM; in assay [3] (Table 4), 1.79 µM; in assay [4] it was 2.23 µM; in assay [5] (Table 3) it was 2.21 ± 0.541 µM; in assay [5] (Table 5), 2.21 µM.

On to `COc1cccc2c1C(=O)c1c(O)c3c(c(O)c1C2=O)C[C@@](O)(C(=O)CO)C[C@@H]3O[C@H]1C[C@H](N)[C@H](O)[C@H](C)O1` [Doxorubicin], for which the RF in assay [3] (Table 2) came to 1.00.

As for `CC(=O)O[C@H]1C(=O)[C@@]2(C)[C@H]([C@H](OC(=O)c3ccccc3)[C@]3(O)C[C@H](OC(=O)[C@H](O)[C@@H](NC(=O)c4ccccc4)c4ccccc4)C(C)=C1C3(C)C)[C@]1(OC(C)=O)CO[C@@H]1C[C@@H]2O` [Paclitaxel], the RF in assay [3] (Table 2) and in assay [5] (Table 3) was 1.00 in each case.

In the case of `CC[C@]1(O)C[C@H]2CN(CCc3c([nH]c4ccccc34)[C@@](C(=O)OC)(c3cc4c(cc3OC)N(C=O)[C@H]3[C@@](O)(C(=O)OC)[C@H](OC(C)=O)[C@]5(CC)C=CCN6CC[C@]43[C@@H]65)C2)C1` [Vincristine], the RF in assay [2] turned out to be 169.05; in assay [3] (Table 4), 1.00; in assay [4], 19.79; in assay [5] (Table 5) it was 1.00. Also, the 50% inhibitory concentration (IC50) in assay [3] (Homo sapiens, 72 h, Table 4) came out at 0.095 µM; in assay [5] (Homo sapiens, Table 5), 0.137 µM; in the assay on parental cells (KB-3-1), 0.095 µM.

As for `CN(C)C(=O)CCSC(SCCC(=O)O)c1cccc(/C=C/c2ccc3ccc(Cl)cc3n2)c1` (stereo not shown) [MK571], the RF of cisplatin in assay [5] (cisplatin + MK571 (5 μM)) is 0.99. Further, the RF of vincristine in assay [5] (vincristine + MK571 (5 μM)) is 1.02.

In general, IC50 refers to the concentration needed to halve the response being measured.
